Data from patent publication US20260070927A1, “INDAZOLE MACROCYCLES FOR THE TREATMENT OF AUTOIMMUNE DISEASE” (Hoffmann-La Roche Inc., priority 2022, published 2026).

Assays:
[1] = biological target: human stimulator of interferon genes (STING) (139-379) (Homo sapiens (Human), UniProt Q86WV6); test: Microliter plate-based TR-FRET competition-binding assay for binders of STING; settings: Alexa488 probe, read-out: FRET_IC50
Method: This is the competition-binding assay to test the compounds' potency to the C-terminal Domain (CTD) and ligand-binding domain of human stimulator of interferon genes (STING). STING (139-379, Q86WV6, http://www.uniprot.org/uniprot) recombinant protein (in 20 mM Tris, 150 mM NaCl, pH 8.0, and expression in Escherichia coli (E. coli) BL21 (DE3)) with a C-terminal flag-tag was employed for the assay. When Alexa-488 labeled active site probe (refer to patent WO2017/175156 A1) bounds to STING (139-379), it accepts the 485 nm emission from Tb-M2-Flag-STING and results in an increase in fluorescence at 520 nm. Compounds that compete for the probe-binding site will reduce 520 nm signal. The assay was run in proxiplate-384 plus (PerkinElmer, cat: 60150300) containing of 2.5 nM STING, 2.5 nM M2-Tb (Cisbio, 61FG2TLA, Lot: 17 A) and 250 nM Alexa488 probe. Plates were centrifuged for 1 min at 1000 rpm, incubated for 30 min at room temperature, and then measured the dual fluorescence emission at 520 nm/485 nM following 320 nm laser excitation on an Envision plate reader (Perkin-Elmer). The compounds' effect on the STING binding is detected by measuring ratiometric fluorescence from time-resolved FRET. The percentage of inhibition of at each compound concentration is calculated on the basis of their changes of TR-FRET efficiency relative to the change of TR-FRET caused by positive control 2′3′cGAMP (Sigma, cat: SML1229).

[2] = Metabolic (liver microsomal) stability assay; settings: human liver microsomes, 1 μM test compound
Method: The liver microsomal stability assay is used for early assessment of metabolic stability of a test compound in liver microsomes.
Liver microsomes were preincubated with test compound for 10 minutes at 37° C. in 100 mM potassium phosphate buffer, pH 7.4. The reactions were initiated by adding NADPH regenerating system. The final incubation mixtures contained 1 μM test compound, 0.5 mg/mL liver microsomal protein, 1 mM MgCl2, 1 mM NADP, 1 unit/mL isocitric dehydrogenase and 6 mM isocitric acid in 100 mM potassium phosphate buffer, pH 7.4. After incubation times of 0, 3, 6, 9, 15 and 30 minutes at 37° C., 300 μL of cold acetonitrile (including internal standard) was added to 100 μL incubation mixture to terminate the reaction. Following precipitation and centrifugation, the amount of compound remaining in the samples were determined by LC-MS/MS. Controls of no NADPH regenerating system at zero and 30 minutes were also prepared and analyzed.

[3] = tested on: STING (IFN-β in hPBMC); test: hPBMC cytokine functional assay (IFN-β decrease after Baculovirus stimulation); type: cell-based; settings: Homo sapiens, Baculovirus MOI 40, 24 hours, read-out: hPBMC_IC50
Method: The inhibition of STING by compounds could be measured by the decrease of IFN-β in hPBMC, which is stimulated by a double stranded DNA virus Baculoviurs (Purchased from Genescript, pCMV-Dest Vector virus generation P2 BV stock virus, Sf-900 II medium with 5% FBS, Lot C9835DK230-2/P4DL001). Frozen hPBMC cells (purchased from Stemcell Technologies, cat number is 70025, Lot 191070803C) were thawed at 37° C. water bath, then cells were re-suspended in 50 ml tube using 20 ml Cell culture medium, and then centrifuged for 5 min at 2000 rpm before the supernatant was removed carefully. The cells were re-suspended in culture medium (RPMI-1640 with 1.5 g/L NaHCO3, 4.5 g/L glucose, 10 mM HEPES and 1 mM Na-pyruvate, 10% HI-FBS); 65 μL of the cell suspension was dispensed into 384 well plate (70K cells/well) by Multidrop Combi with at least 3 hours incubation at 37° C., 5% CO2 cell incubator.
Then 4 μL of compound solution per well (final 0.5% DMSO) was transferred by Agilent Bravo followed by infection with 11 μL of Baculovirus at a final MOI of 40. The level of IFN-β secreted in the supernatant of hPBMC was determined after 24 hours of incubation at 37° C. cell incubator by human IFN-β HTRF assay (Cisbio, cat: 62HIFNBPEH) following the manufacture's instruction. CellTiter-Glo kit (Promega, cat: G7573) was applied for the cell viability evaluation using Envision.

human stimulator of interferon genes (STING) (139-379), sequence (Q86WV6 139-379): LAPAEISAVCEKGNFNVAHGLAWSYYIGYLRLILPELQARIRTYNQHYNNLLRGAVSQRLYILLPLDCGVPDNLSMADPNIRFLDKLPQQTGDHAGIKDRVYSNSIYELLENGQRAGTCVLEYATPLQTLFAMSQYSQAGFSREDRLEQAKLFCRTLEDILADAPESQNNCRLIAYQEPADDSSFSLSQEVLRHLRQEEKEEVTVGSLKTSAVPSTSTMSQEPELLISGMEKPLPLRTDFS

CN1CCCc2c3c(cccc3nn2C)-c2ccnc(n2)N[C@H]2C[C@@H](C1=O)N(c1ncnc3c1cnn3-c1ccc(F)cc1F)C2 [Example 4, (8S,11S)-10-[1-(2,4-difluorophenyl)pyrazolo[3,4-d]pyrimidin-4-yl]-13,18-dimethyl-5,7,10,13,18,19,26-heptazapentacyclo[15.6.1.1^2,6.1^8,11.0^20,24]hexacosa-1(23),2,4,6(26),17(24),19,21-heptaen-12-one]
IC50 [1]: 0.5 nM | Clearance of human microsome [2]: 15.0 mL/min/kg | IC50 [3]: 413 nM

CN1CCCc2c3c(cccc3nn2C)-c2cncc(n2)N[C@H]2C[C@@H](C1=O)N(c1ncnc3c1cnn3-c1ccc(F)cc1F)C2 [Example 7, (8S,11S)-10-[1-(2,4-difluorophenyl)pyrazolo[3,4-d]pyrimidin-4-yl]-13,18-dimethyl-4,7,10,13,18,19,26-heptazapentacyclo[15.6.1.1^2,6.1^8,11.0^20,24]hexacosa-1(23),2,4,6(26),17(24),19,21-heptaen-12-one]
IC50 [1]: 0.4 nM | Clearance of human microsome [2]: 13.3 mL/min/kg | IC50 [3]: 325 nM

Cn1nc2cccc3c2c1CCCN(CCCO)C(=O)[C@@H]1C[C@@H](CN1c1ncnc2c1cnn2-c1ccc(F)cc1F)Oc1cccc-3c1 [Example 26, (8S,11S)-10-[1-(2,4-difluorophenyl)pyrazolo[3,4-d]pyrimidin-4-yl]-13-(3-hydroxypropyl)-18-methyl-7-oxa-10,13,18,19-tetrazapentacyclo[15.6.1.1^2,6.1^8,11.0^20,24]hexacosa-1(23),2(26),3,5,17(24),19,21-heptaen-12-one]
IC50 [1]: 2.2 nM | IC50 [3]: 103 nM

COCCCN1CCCc2c3c(cccc3nn2C)-c2cccc(c2)O[C@H]2C[C@@H](C1=O)N(c1ncnc3c1cnn3-c1ccc(F)cc1F)C2 [Example 27, (8S,11S)-10-[1-(2,4-difluorophenyl)pyrazolo[3,4-d]pyrimidin-4-yl]-13-(3-methoxypropyl)-18-methyl-7-oxa-10,13,18,19-tetrazapentacyclo[15.6.1.1^2,6.1^8,11.0^20,24]hexacosa-1(23),2(26),3,5,17(24),19,21-heptaen-12-one]
IC50 [1]: 14.2 nM | IC50 [3]: 23 nM

Cn1nc2cccc3c2c1CCCN(CCOCc1ccncc1)C(=O)[C@@H]1C[C@@H](CN1c1ncnc2c1cnn2-c1ccc(F)cc1F)Oc1cccc-3c1 [Example 28, (8S,11S)-10-[1-(2,4-difluorophenyl)pyrazolo[3,4-d]pyrimidin-4-yl]-18-methyl-13-[2-(4-pyridylmethoxy)ethyl]-7-oxa-10,13,18,19-tetrazapentacyclo[15.6.1.1^2,6.1^8,11.0^20,24]hexacosa-1(23),2(26),3,5,17(24),19,21-heptaen-12-one]
IC50 [1]: 0.2 nM | IC50 [3]: 184 nM

Cn1nc2cccc3c2c1CCCN(CCCc1ccccc1)C(=O)[C@@H]1C[C@@H](CN1c1ncnc2c1cnn2-c1ccc(F)cc1F)Oc1cccc-3c1 [Example 29, (8S,11S)-10-[1-(2,4-difluorophenyl)pyrazolo[3,4-d]pyrimidin-4-yl]-18-methyl-13-(3-phenylpropyl)-7-oxa-10,13,18,19-tetrazapentacyclo[15.6.1.1^2,6.1^8,11.0^20,24]hexacosa-1(23),2(26),3,5,17(24),19,21-heptaen-12-one]
IC50 [1]: 1.2 nM | IC50 [3]: 31 nM

Cn1nc2cccc3c2c1CCCN(CCCN1CCOCC1)C(=O)[C@@H]1C[C@@H](CN1c1ncnc2c1cnn2-c1ccc(F)cc1F)Oc1cccc-3c1 [Example 30, (8S,11S)-10-[1-(2,4-difluorophenyl)pyrazolo[3,4-d]pyrimidin-4-yl]-18-methyl-13-(3-morpholinopropyl)-7-oxa-10,13,18,19-tetrazapentacyclo[15.6.1.1^2,6.1^8,11.0^20,24]hexacosa-1(23),2(26),3,5,17(24),19,21-heptaen-12-one]
IC50 [1]: 2 nM | IC50 [3]: 173 nM

CC(=O)N1CCN(CCCN2CCCc3c4c(cccc4nn3C)-c3cccc(c3)O[C@H]3C[C@@H](C2=O)N(c2ncnc4c2cnn4-c2ccc(F)cc2F)C3)CC1 [Example 33, (8S,11S)-13-[3-(4-acetylpiperazin-1-yl)propyl]-10-[1-(2,4-difluorophenyl)pyrazolo[3,4-d]pyrimidin-4-yl]-18-methyl-7-oxa-10,13,18,19-tetrazapentacyclo[15.6.1.1^2,6.1^8,11.0^20,24]hexacosa-1(23),2(26),3,5,17(24),19,21-heptaen-12-one]
IC50 [1]: 1.7 nM | IC50 [3]: 806 nM

Cn1nc2cccc3c2c1CCCN(CCCN1CCN(S(C)(=O)=O)CC1)C(=O)[C@@H]1C[C@@H](CN1c1ncnc2c1cnn2-c1ccc(F)cc1F)Oc1cccc-3c1 [Example 35, (8S,11S)-10-[1-(2,4-difluorophenyl)pyrazolo[3,4-d]pyrimidin-4-yl]-18-methyl-13-[3-(4-methylsulfonylpiperazin-1-yl)propyl]-7-oxa-10,13,18,19-tetrazapentacyclo[15.6.1.1^2,6.1^8,11.0^20,24]hexacosa-1(23),2(26),3,5,17(24),19,21-heptaen-12-one]
IC50 [1]: 0.2 nM | IC50 [3]: 183 nM

Cn1nc2cccc3c2c1CCCN(CCCn1ccnc1)C(=O)[C@@H]1C[C@@H](CN1c1ncnc2c1cnn2-c1ccc(F)cc1F)Oc1cccc-3c1 [Example 38, (8S,11S)-10-[1-(2,4-difluorophenyl)pyrazolo[3,4-d]pyrimidin-4-yl]-13-(3-imidazol-1-ylpropyl)-18-methyl-7-oxa-10,13,18,19-tetrazapentacyclo[15.6.1.1^2,6.1^8,11.0^20,24]hexacosa-1(23),2(26),3,5,17(24),19,21-heptaen-12-one]
IC50 [1]: 0.9 nM | IC50 [3]: 465 nM

Cn1nc2cccc3c2c1CCCN(CCCc1ccccc1)C(=O)[C@@H]1C[C@@H](CN1c1ncnc2c1cnn2-c1ccc(F)cc1F)Oc1cccc-3n1 [Example 41, (8S,11S)-10-[1-(2,4-difluorophenyl)pyrazolo[3,4-d]pyrimidin-4-yl]-18-methyl-13-(3-phenylpropyl)-7-oxa-10,13,18,19,26-pentazapentacyclo[15.6.1.1^2,6.1^8,11.0^20,24]hexacosa-1(23),2(26),3,5,17(24),19,21-heptaen-12-one]
IC50 [1]: 2.1 nM | IC50 [3]: 48 nM

Cn1nc2cccc3c2c1CCCN(CCCO)C(=O)[C@@H]1C[C@@H](CN1c1ncnc2c1cnn2-c1ccc(F)cc1F)Nc1cccc-3n1 [Example 42, (8S,11S)-10-[1-(2,4-difluorophenyl)pyrazolo[3,4-d]pyrimidin-4-yl]-13-(3-hydroxypropyl)-18-methyl-7,10,13,18,19,26-hexazapentacyclo[15.6.1.1^2,6.1^8,11.0^20,24]hexacosa-1(23),2(26),3,5,17(24),19,21-heptaen-12-one]
IC50 [1]: 5.3 nM | Clearance of human microsome [2]: 13.3 mL/min/kg

COc1cc(F)ccc1-n1ncc2c(N3C[C@@H]4C[C@H]3C(=O)N(CCCN3CCOCC3)CCCc3c5c(cccc5nn3C)-c3cc(C)cc(n3)N4)ncnc21 [Example 46, (8S,11S)-10-[1-(4-fluoro-2-methoxy-phenyl)pyrazolo[3,4-d]pyrimidin-4-yl]-4,18-dimethyl-13-(3-morpholinopropyl)-7,10,13,18,19,26-hexazapentacyclo[15.6.1.1^2,6.1^8,11.0^20,24]hexacosa-1(23),2(26),3,5,17(24),19,21-heptaen-12-one]
IC50 [1]: 7.6 nM | Clearance of human microsome [2]: 14.9 mL/min/kg
